≈ marks a conversion by molar mass, not a printed value. Marks after values point to notes of the source that are not given here.

The nature of series [1]: Moisture sorption/desorption (VTI SGA-100 Vapor Sorption Analyzer). It is filed as physicochemical. The following applies: for Moisture balance: loss from 95-5% RH: desorption from 95% to 5% RH; for Moisture balance: weight loss at 5% RH: equilibration at 5% RH; for Moisture balance: weight gain at 95% RH: sorption up to 95% RH; for Weight lost upon lowering the relative humidity (in words): lowering relative humidity from 95% RH to 5% RH. The method, then: Moisture sorption/desorption data were collected on a VTI SGA-100 Vapor Sorption Analyzer. Sorption and desorption data were collected over a range of 5% to 95% relative humidity (RH) at 10% RH intervals under a nitrogen purge. Samples were not dried prior to analysis. Equilibrium criteria used for analysis were less than 0.0100% weight change in 5 minutes, with a maximum equilibration time of 3 hours if the weight criterion was not met. Data were not corrected for the initial moisture content of the samples. NaCl and PVP were used as calibration standards.

Series [2] is described as follows: Approximate solubilities in various solvents at ambient temperature (crystallization screen). It is filed as physicochemical. As to the method:
A weighed sample of L-dT (usually 20-30 mg) was treated with aliquots of the test solvent. Solvents were either reagent or HPLC grade. The aliquots were usually 100 μL or 500 μL. Between additions the mixture was sonicated. When the solids dissolved, as judged by visual inspection, the solution was filtered, then left in an open vial under ambient conditions (fast evaporation). The procedure was repeated, and the resulting solution was left under ambient conditions in a vial with aluminum foil containing pinholes (slow evaporation). Samples were also generated by filtering a warm solution of L-dT into a cold antisolvent (cold precipitation).
Solubilities were estimated from these experiments based on the total solvent used to give a solution. Note that actual solubilities may be greater than those calculated because of the use of too-large solvent aliquots or a slow rate of dissolution.
Approximate solubilities of L-dT in various solvents at ambient temperature were determined during the crystalline screen, and are summarized in Table 1.

Setting [3] is: solvent 1,1,1,3,3,3-hexafluoroisopropanol.
[4] abbreviates: solvent N,N-dimethylformamide (DMF).
The mark [5] stands for this setting: solvent ethanol (EtOH), after 2 hours, all solid was dissolved.

Regarding `Cc1cn([C@@H]2C[C@@H](O)[C@H](CO)O2)c(=O)[nH]c1=O` [Lot No. 2, beta-L-2′-deoxythymidine], in series [1] (listed as 2), the “Moisture balance: loss from 95-5% RH” value turned out to be 2.7% loss from 95-5% RH, the “Moisture balance: weight loss at 5% RH” value was −0.4% weight loss at 5% RH and the “Moisture balance: weight gain at 95% RH” value was found to be 2.8% weight gain at 95% RH.

By Solubility is commonly meant how much of the substance goes into solution per volume. Lower therefore signals little dissolved substance. Regarding `Cc1cn([C@@H]2C[C@@H](O)[C@H](CO)O2)c(=O)[nH]c1=O` [crystalline L-dT, beta-L-2′-deoxythymidine], the Solubility in series [2] (setting [3]) is on record as 22 mg/mL (≈ 90.8 mM); in series [2] (solvent 2,2,2-trifluoroethanol), 8 mg/mL (≈ 33 mM); in series [2] (solvent MeOH:water (1:1)), 58 mg/mL (≈ 239 mM); in series [2] (setting [4]), 72 mg/mL (≈ 297 mM); in series [2] (solvent THF:water (1:1)), 127 mg/mL (≈ 524 mM); in series [2] (solvent acetone), <4 mg/mL. Moreover, the Solubility is 51 mg/mL (≈ 211 mM) in series [2] (solvent acetone:water (4:1)); <4 mg/mL in series [2] (solvent acetonitrile (ACN)); <3 mg/mL in series [2] (solvent dichloromethane); >3.6* mg/mL in series [2] (setting [5]); <4 mg/mL in series [2] (solvent ethyl acetate (EtOAc)); <3 mg/mL in series [2] (solvent ethyl ether). Moreover, the Solubility in series [2] (solvent hexane) is reported as <4 mg/mL; in series [2] (solvent isopropanol IPA), <3 mg/mL; in series [2] (solvent methanol (MeOH)), 11 mg/mL (≈ 45.4 mM); in series [2] (solvent tetrahydrofuran (THF)), 4 mg/mL (≈ 16.5 mM); in series [2] (solvent toluene), <4 mg/mL; in series [2] (solvent water) it was 32 mg/mL (≈ 132 mM). Moreover, the “Weight lost upon lowering the relative humidity (in words)” value in series [1] is “All of this weight is lost”. In addition, in series [1], the “Moisture balance: weight gain at 95% RH” value was found to be 1.1%.

Regarding `Cc1cn([C@@H]2C[C@@H](O)[C@H](CO)O2)c(=O)[nH]c1=O` [L-dT, beta-L-2′-deoxythymidine], the “Solubility (in words)” value in series [2] (in acetone, acetonitrile, ethyl acetate, diethyl ether, isopropanol, methylene chloride, and toluene) is on record as “sparingly soluble”. Also, the Solubility in series [2] (setting [3]) came to 22 mg/mL (≈ 90.8 mM); in series [2] (solvent 2,2,2-trifluoroethanol), 8 mg/mL (≈ 33 mM); in series [2] (solvent MeOH:water (1:1)), 58 mg/mL (≈ 239 mM); in series [2] (setting [4]), 72 mg/mL (≈ 297 mM); in series [2] (solvent THF:water (1:1)), 127 mg/mL (≈ 524 mM); in series [2] (solvent acetone:water (4:1)) it was 51 mg/mL (≈ 211 mM). Further, the Solubility in series [2] (setting [5]) is given as > 4 mg/mL; in series [2] (solvent methanol (MeOH)) it was 11 mg/mL (≈ 45.4 mM); in series [2] (solvent water), 32 mg/mL (≈ 132 mM).

`Cc1cn([C@@H]2C[C@@H](O)[C@H](CO)O2)c(=O)[nH]c1=O` [amorphous L-dT, beta-L-2′-deoxythymidine]: in series [1], the “Moisture balance: weight loss at 5% RH” value was ~0.4% and the “Weight lost upon lowering the relative humidity (in words)” value is recorded as “loses almost all of this weight”. Besides, the “Moisture sorption: weight gain up to about 55% RH” value in series [1] (sorption up to about 55% RH) is ~2.3%.

Regarding `Cc1cn([C@@H]2C[C@@H](O)[C@H](CO)O2)c(=O)[nH]c1=O` [Lot No. 1, beta-L-2′-deoxythymidine], in series [1] (listed as 1), the “Moisture balance: loss from 95-5% RH” value is recorded as 1.1% loss from 95-5% RH, the “Moisture balance: weight loss at 5% RH” value is given as <0.1% weight loss at 5% RH and the “Moisture balance: weight gain at 95% RH” value was determined as 1.1% weight gain at 95% RH.

Values taken from patent US7589079B2, “Crystalline and amorphous forms of beta-L-2′-deoxythymidine” (Novartis AG, priority 2002, dated 2009).
